Results on 21 compounds are retold here after patent publication US20240109917A1 (ACTELION PHARMACEUTICALS LTD, priority 2020, published 2024).

Each structure is given as a SMILES string.

In assay [1] the target is Tb-labeled inactive PDGFRβ (Homo sapiens (Human), UniProt P09619). The assay can be described thus: PDGFRβ LanthaScreen Assay. It counts as binding. The following applies: read-out: PDGFR Lantha IC50. For orientation: TR-FRET usually uses a lanthanide donor and a delayed reading to cut background.
For assay [2], the target named is His6-TEV-PDGFRβ (557-1016) (Homo sapiens (Human), UniProt P09619). Kind of assay: PDGFRβ HTRF Assay. It counts as biochemical. The following applies: read-out: PDGFR HTRF IC50. The essentials:
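Human PDGFRβ (557-1016) pre-incubated with compound for 30 min at RT in pH 7.5 HEPES/MgCl2/EGTA/Brij-35/DTT buffer. Reaction started with ATP and TK-biotin peptide, run 3 h at RT, then quenched with EDTA-containing Eu-cryptate antibody/streptavidin-XL665. HTRF 665/620 nm ratio read after 60 min; percent inhibition relative to DMSO and 10 μM imatinib controls.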

A further assay deals with VEGFR2, unphosphorylated (Homo sapiens (Human), UniProt P35968). Kind of assay: VEGFR ADP GLO Assay. It counts as biochemical. Background: In ADP-Glo the light output rises with the ADP produced.
VEGFR2, unphosphorylated, sequence (P35968 20-1356): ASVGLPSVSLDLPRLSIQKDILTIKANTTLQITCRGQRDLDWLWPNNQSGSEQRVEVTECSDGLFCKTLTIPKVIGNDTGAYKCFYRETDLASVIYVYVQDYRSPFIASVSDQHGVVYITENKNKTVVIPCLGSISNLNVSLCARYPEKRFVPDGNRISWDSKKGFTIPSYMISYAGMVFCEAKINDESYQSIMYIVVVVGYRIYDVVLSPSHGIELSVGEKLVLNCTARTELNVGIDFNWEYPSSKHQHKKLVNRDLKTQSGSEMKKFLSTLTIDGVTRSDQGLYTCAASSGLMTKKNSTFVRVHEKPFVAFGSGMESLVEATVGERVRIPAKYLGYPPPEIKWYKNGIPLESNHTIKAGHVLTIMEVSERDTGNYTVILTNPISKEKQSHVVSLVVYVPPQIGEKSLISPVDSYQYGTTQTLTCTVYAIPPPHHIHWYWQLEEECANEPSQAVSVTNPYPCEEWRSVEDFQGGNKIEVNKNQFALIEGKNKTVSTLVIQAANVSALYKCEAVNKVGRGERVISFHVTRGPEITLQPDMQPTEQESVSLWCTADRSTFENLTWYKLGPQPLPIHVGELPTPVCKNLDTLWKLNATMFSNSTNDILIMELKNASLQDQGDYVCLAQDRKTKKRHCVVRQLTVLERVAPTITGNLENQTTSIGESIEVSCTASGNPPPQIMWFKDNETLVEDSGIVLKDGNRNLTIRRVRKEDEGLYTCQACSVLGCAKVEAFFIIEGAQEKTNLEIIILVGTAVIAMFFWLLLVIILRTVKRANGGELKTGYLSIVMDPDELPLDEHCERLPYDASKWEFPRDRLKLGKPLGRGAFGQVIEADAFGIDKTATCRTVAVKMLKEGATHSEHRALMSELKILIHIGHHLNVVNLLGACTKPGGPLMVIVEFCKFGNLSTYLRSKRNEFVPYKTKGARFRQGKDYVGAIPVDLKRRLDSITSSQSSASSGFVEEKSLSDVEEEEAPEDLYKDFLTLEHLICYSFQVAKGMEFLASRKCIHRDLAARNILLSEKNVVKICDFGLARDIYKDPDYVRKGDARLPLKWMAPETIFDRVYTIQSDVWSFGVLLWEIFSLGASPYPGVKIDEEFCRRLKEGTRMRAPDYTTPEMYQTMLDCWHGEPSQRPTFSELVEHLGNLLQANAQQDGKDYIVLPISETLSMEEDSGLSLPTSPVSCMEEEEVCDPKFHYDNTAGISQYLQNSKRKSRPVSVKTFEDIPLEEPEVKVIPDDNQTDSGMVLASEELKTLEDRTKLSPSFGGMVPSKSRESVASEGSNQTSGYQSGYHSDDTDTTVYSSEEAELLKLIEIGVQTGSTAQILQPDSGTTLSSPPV

His6-TEV-PDGFRβ (557-1016), sequence (P09619 557-1016): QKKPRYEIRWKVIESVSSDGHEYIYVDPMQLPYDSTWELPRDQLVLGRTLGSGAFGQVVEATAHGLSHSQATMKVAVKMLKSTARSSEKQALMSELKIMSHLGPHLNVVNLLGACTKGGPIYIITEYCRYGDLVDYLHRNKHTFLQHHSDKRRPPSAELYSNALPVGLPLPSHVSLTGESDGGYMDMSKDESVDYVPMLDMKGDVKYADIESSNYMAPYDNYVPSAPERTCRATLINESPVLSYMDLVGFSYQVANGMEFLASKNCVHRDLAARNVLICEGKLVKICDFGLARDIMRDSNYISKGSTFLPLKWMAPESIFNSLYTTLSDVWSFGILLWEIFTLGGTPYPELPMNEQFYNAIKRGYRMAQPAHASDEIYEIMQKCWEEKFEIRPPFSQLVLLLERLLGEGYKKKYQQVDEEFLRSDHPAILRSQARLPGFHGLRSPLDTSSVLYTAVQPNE
Tb-labeled inactive PDGFRβ, sequence (P09619 33-1106): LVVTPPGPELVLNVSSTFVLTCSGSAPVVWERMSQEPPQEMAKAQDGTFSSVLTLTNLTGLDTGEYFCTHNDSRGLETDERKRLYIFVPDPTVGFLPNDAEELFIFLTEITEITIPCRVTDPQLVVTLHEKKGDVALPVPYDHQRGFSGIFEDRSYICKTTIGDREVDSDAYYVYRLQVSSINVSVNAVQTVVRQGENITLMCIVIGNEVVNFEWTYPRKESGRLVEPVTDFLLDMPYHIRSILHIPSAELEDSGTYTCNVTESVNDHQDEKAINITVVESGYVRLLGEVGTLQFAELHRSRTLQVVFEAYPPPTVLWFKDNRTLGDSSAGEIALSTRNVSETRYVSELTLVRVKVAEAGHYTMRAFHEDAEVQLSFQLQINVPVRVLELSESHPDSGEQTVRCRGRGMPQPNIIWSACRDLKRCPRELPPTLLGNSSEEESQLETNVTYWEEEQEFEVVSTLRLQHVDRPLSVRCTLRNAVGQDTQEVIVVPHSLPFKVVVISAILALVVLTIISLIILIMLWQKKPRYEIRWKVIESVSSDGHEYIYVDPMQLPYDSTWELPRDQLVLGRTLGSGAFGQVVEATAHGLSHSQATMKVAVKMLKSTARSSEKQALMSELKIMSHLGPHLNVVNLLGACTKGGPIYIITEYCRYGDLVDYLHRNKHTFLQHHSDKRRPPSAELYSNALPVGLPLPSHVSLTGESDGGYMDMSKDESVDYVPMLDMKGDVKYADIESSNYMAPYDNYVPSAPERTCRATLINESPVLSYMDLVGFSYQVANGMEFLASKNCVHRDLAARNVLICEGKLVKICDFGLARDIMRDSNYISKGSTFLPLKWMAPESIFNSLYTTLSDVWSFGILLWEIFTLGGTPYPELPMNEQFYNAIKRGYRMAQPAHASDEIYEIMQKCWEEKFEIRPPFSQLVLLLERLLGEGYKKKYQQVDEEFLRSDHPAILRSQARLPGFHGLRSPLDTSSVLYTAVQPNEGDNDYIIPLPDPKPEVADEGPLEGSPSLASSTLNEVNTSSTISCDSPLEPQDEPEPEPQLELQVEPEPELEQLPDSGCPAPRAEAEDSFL

As usually defined, the IC50 is the concentration at which inhibition is half-maximal. Turning to `Cc1ncc(NC(=O)CN2CCC[C@@H]2C)cc1NC(=O)c1cnn2cc(-c3ccnc(N4CCOCC4)c3)sc12` [Example 352, (S)—N-(2-methyl-5-(2-(2-methylpyrrolidin-1-yl)acetamido)pyridin-3-yl)-2-(2-morpholinopyridin-4-yl)pyrazolo[5,1-b]thiazole-7-carboxamide], the 50% inhibitory concentration (IC50) in assay [1] is 4.7 nM; in assay [2] it was 0.3 nM; against VEGFR2, unphosphorylated it was > 7.5 µM.

`Cc1ncc(NC(=O)CN2CCC23CCC3)cc1NC(=O)c1cnn2cc(-c3ccnc(N4CCOCC4)c3)sc12` [Example 353, N-(5-(2-(1-azaspiro[3.3]heptan-1-yl)acetamido)-2-methylpyridin-3-yl)-2-(2-morpholinopyridin-4-yl)pyrazolo[5,1-b]thiazole-7-carboxamide]: the half-inhibitory concentration (IC50) is 1.4 nM in assay [1]; 0.2 nM in assay [2]; > 7.5 µM at VEGFR2, unphosphorylated.

For `Cc1ncc(NC(=O)C2CN(C(C)C)C2)cc1NC(=O)c1cnn2cc(-c3cn(C)nc3C)sc12` [Example 354, 2-(1,3-dimethyl-1H-pyrazol-4-yl)-N-(5-(1-isopropylazetidine-3-carboxamido)-2-methylpyridin-3-yl)pyrazolo[5,1-b]thiazole-7-carboxamide], the IC50 in assay [1] was 4.3 nM; in assay [2], 0.2 nM; at VEGFR2, unphosphorylated it was > 7.5 µM.

With `Cc1ncc(NC(=O)C2CCN(C(C)C)C2)cc1NC(=O)c1cnn2cc(-c3cn(C)nc3C)sc12` (stereo not drawn) [Example 355, 2-(1,3-dimethyl-1H-pyrazol-4-yl)-N-(5-(1-isopropylpyrrolidine-3-carboxamido)-2-methylpyridin-3-yl)pyrazolo[5,1-b]thiazole-7-carboxamide], the concentration for half-maximal inhibition (IC50) is 11.3 nM in assay [1]; 0.4 nM in assay [2]; > 7.5 µM against VEGFR2, unphosphorylated.

Consider `Cc1ncc(NC(=O)C2CCN(C(C)C)C2)cc1NC(=O)c1cnn2cc(-c3cnn(C)c3C)sc12` (stereo not drawn) [Example 356, 2-(1,5-dimethyl-1H-pyrazol-4-yl)-N-(5-(1-isopropylpyrrolidine-3-carboxamido)-2-methylpyridin-3-yl)pyrazolo[5,1-b]thiazole-7-carboxamide], for which the IC50 in assay [1] is 17.9 nM; in assay [2], 0.5 nM; against VEGFR2, unphosphorylated, > 7.5 µM.

On to `Cc1ncc(NC(=O)C2CN(C(C)C)C2)cc1NC(=O)c1cnn2cc(-c3cnn(C)c3C)sc12` [Example 357, 2-(1,5-dimethyl-1H-pyrazol-4-yl)-N-(5-(1-isopropylazetidine-3-carboxamido)-2-methylpyridin-3-yl)pyrazolo[5,1-b]thiazole-7-carboxamide], for which the IC50 in assay [1] was 4.5 nM; in assay [2], 0.2 nM; against VEGFR2, unphosphorylated, > 7.5 µM.

For the compound `Cc1ncc(NS(=O)(=O)CCN2CC3CCC2CC3)cc1NC(=O)c1cnn2cc(-c3cnn(C)c3)sc12` [Example 358, N-(5-((2-(2-azabicyclo[2.2.2]octan-2-yl)ethyl)sulfonamido)-2-methylpyridin-3-yl)-2-(1-methyl-1H-pyrazol-4-yl)pyrazolo[5,1-b]thiazole-7-carboxamide], the concentration for half-maximal inhibition (IC50) in assay [1] was 1840 nM; in assay [2] it was 86.6 nM; against VEGFR2, unphosphorylated, > 7.5 µM.

Regarding `Cc1ncc(S(=O)(=O)NCCN2CCCC2(C)C)cc1NC(=O)c1cnn2cc(-c3cnn(C)c3)sc12` [Example 359, N-(5-(N-(2-(2,2-dimethylpyrrolidin-1-yl)ethyl)sulfamoyl)-2-methylpyridin-3-yl)-2-(1-methyl-1H-pyrazol-4-yl)pyrazolo[5,1-b]thiazole-7-carboxamide], the IC50 in assay [1] is 451 nM; in assay [2] it was 16.4 nM; against VEGFR2, unphosphorylated, > 7.5 µM.

Take `COCCCc1cn2ncc(C(=O)Nc3cc(C(=O)NCCN4CCCC4(C)C)cnc3C)c2s1` [Example 360, N-(5-((2-(2,2-dimethylpyrrolidin-1-yl)ethyl)carbamoyl)-2-methylpyridin-3-yl)-2-(3-methoxypropyl)pyrazolo[5,1-b]thiazole-7-carboxamide]: the concentration for half-maximal inhibition (IC50) in assay [1] was 100 nM; in assay [2], 4.9 nM; at VEGFR2, unphosphorylated it was > 7.5 µM.

In the case of `COC/C=C/c1cn2ncc(C(=O)Nc3cc(C(=O)NCCN4CCCC4(C)C)cnc3C)c2s1` [Example 361, (E)-N-(5-((2-(2,2-dimethylpyrrolidin-1-yl)ethyl)carbamoyl)-2-methylpyridin-3-yl)-2-(3-methoxyprop-1-en-1-yl)pyrazolo[5,1-b]thiazole-7-carboxamide], the IC50 in assay [1] is 19 nM; in assay [2] it was 1.3 nM; on VEGFR2, unphosphorylated, > 7.5 µM.

As to `Cc1ncc(C(=O)NCCN2CCCC2(C)C)cc1NC(=O)c1cnn2cc(-c3cnn(Cc4cc(OCc5ccccc5)no4)c3)sc12` [Example 362, 2-(1-((3-(benzyloxy)isoxazol-5-yl)methyl)-1H-pyrazol-4-yl)-N-(5-((2-(2,2-dimethylpyrrolidin-1-yl)ethyl)carbamoyl)-2-methylpyridin-3-yl)pyrazolo[5,1-b]thiazole-7-carboxamide], the IC50 in assay [1] is 4.5 nM; in assay [2] it was 0.5 nM; against VEGFR2, unphosphorylated, > 2.5 µM.

Take `Cc1ncc(C(=O)NCCN2CCCC2(C)C)cc1NC(=O)c1cnn2cc(-c3cnn(Cc4cc(O)no4)c3)sc12` [Example 363, N-(5-((2-(2,2-dimethylpyrrolidin-1-yl)ethyl)carbamoyl)-2-methylpyridin-3-yl)-2-(1-((3-hydroxyisoxazol-5-yl)methyl)-1H-pyrazol-4-yl)pyrazolo[5,1-b]thiazole-7-carboxamide]: the half-inhibitory concentration (IC50) in assay [1] was 14.1 nM; in assay [2] it was 1.3 nM; on VEGFR2, unphosphorylated, > 7.5 µM.

On to `Cc1ncc(NC(=O)CN2C[C@H](C)O[C@@H](C)C2)cc1NC(=O)c1cnn2cc(-c3cc[nH]c3)sc12` [Example 365, N-(5-(2-(2,6-trans-dimethylmorpholino)acetamido)-2-methylpyridin-3-yl)-2-(1H-pyrrol-3-yl)pyrazolo[5,1-b]thiazole-7-carboxamide], for which the 50% inhibitory concentration (IC50) turned out to be 2.4 nM in assay [1]; 0.3 nM in assay [2]; 0.596 µM against VEGFR2, unphosphorylated.

For `Cc1ncc(NC(=O)CN2CC3CCC(C2)O3)cc1NC(=O)c1cnn2cc(-c3cc[nH]c3)sc12` [Example 366, N-(5-(2-(8-oxa-3-azabicyclo[3.2.1]octan-3-yl)acetamido)-2-methylpyridin-3-yl)-2-(1H-pyrrol-3-yl)pyrazolo[5,1-b]thiazole-7-carboxamide], the IC50 in assay [1] was found to be 2.5 nM; in assay [2], 0.3 nM; against VEGFR2, unphosphorylated it was 0.571 µM.

Turning to `COc1ncccc1-c1cn2ncc(C(=O)Nc3cc(NC(=O)CN4CC(C)(C)C4)cnc3C)c2s1` [Example 369, N-(5-(2-(3,3-dimethylazetidin-1-yl)acetamido)-2-methylpyridin-3-yl)-2-(2-methoxypyridin-3-yl)pyrazolo[5,1-b]thiazole-7-carboxamide], the IC50 in assay [1] was 1.4 nM; in assay [2] it was 0.2 nM; against VEGFR2, unphosphorylated, > 7.5 µM.

Regarding `Cc1ncc(NC(=O)CN2C[C@H](CO)OC(C)(C)C2)cc1NC(=O)c1cnn2cc(-c3cnn(C)c3)sc12` [Example 376, (R)—N-(5-(2-(6-(hydroxymethyl)-2,2-dimethylmorpholino)acetamido)-2-methylpyridin-3-yl)-2-(1-methyl-1H-pyrazol-4-yl)pyrazolo[5,1-b]thiazole-7-carboxamide], the IC50 in assay [1] was 5.6 nM; in assay [2], 0.8 nM; on VEGFR2, unphosphorylated, > 7.5 µM.

As to `Cc1ncc(NC(=O)CN2C[C@@H](CO)OC(C)(C)C2)cc1NC(=O)c1cnn2cc(-c3cnn(C)c3)sc12` [Example 377, (S)—N-(5-(2-(6-(hydroxymethyl)-2,2-dimethylmorpholino)acetamido)-2-methylpyridin-3-yl)-2-(1-methyl-1H-pyrazol-4-yl)pyrazolo[5,1-b]thiazole-7-carboxamide], the IC50 in assay [1] was 6.2 nM; in assay [2], 0.8 nM; against VEGFR2, unphosphorylated it was > 7.5 µM.

On to `COc1ncccc1-c1cn2ncc(C(=O)Nc3cc(NC(=O)CN4C[C@H](CO)OC(C)(C)C4)cnc3C)c2s1` [Example 379, (R)—N-(5-(2-(6-(hydroxymethyl)-2,2-dimethylmorpholino)acetamido)-2-methylpyridin-3-yl)-2-(2-methoxypyridin-3-yl)pyrazolo[5,1-b]thiazole-7-carboxamide], for which the IC50 was 2.7 nM in assay [1]; 0.4 nM in assay [2]; > 2.5 µM on VEGFR2, unphosphorylated.

Turning to `COc1ncccc1-c1cn2ncc(C(=O)Nc3cc(NC(=O)CN4C[C@@H](CO)OC(C)(C)C4)cnc3C)c2s1` [Example 380, (S)—N-(5-(2-(6-(hydroxymethyl)-2,2-dimethylmorpholino)acetamido)-2-methylpyridin-3-yl)-2-(2-methoxypyridin-3-yl)pyrazolo[5,1-b]thiazole-7-carboxamide], the half-maximal inhibitory concentration (IC50) in assay [1] was 3 nM; in assay [2], 0.4 nM; at VEGFR2, unphosphorylated, > 2.5 µM.

For `COCC1CN(CC(=O)Nc2cnc(C)c(NC(=O)c3cnn4cc(-c5cnn(C)c5)sc34)c2)CC(C)(C)O1` (stereo not drawn) [Example 383, N-(5-(2-(6-(methoxymethyl)-2,2-dimethylmorpholino)acetamido)-2-methylpyridin-3-yl)-2-(1-methyl-1H-pyrazol-4-yl)pyrazolo[5,1-b]thiazole-7-carboxamide], the half-inhibitory concentration (IC50) in assay [1] was 7.8 nM; in assay [2], 1 nM; at VEGFR2, unphosphorylated, > 2.5 µM.

`COc1ncccc1-c1cn2ncc(C(=O)Nc3cc(C(=O)NCCN4CC(C)(C)C4)cnc3C)c2s1` [Example 387, N-(5-((2-(3,3-dimethylazetidin-1-yl)ethyl)carbamoyl)-2-methylpyridin-3-yl)-2-(2-methoxypyridin-3-yl)pyrazolo[5,1-b]thiazole-7-carboxamide]: the IC50 in assay [1] was 1.5 nM; in assay [2] it was 0.2 nM; against VEGFR2, unphosphorylated, > 7.5 µM.
